The target in data set [1] is T1, hMPV-N46 (127-172) (Human metapneumovirus, UniProt Q6WB98).
T1 construct: hMPV-N46 (127-172)
In words: SPR affinity to hMPV-N46 coupled on CM5 chip. Format: binding. As for the experimental part:
hMPV and hPIV were two viruses having a typical Class I fusion protein-F protein. An F protein precursor F0 was cracked into F1 and F2 subunits. […] When the compound flowed through a chip surface, changes in an SPR signal were monitored in real time, binding and dissociation processes were recorded, and a binding rate constant (ka) and a dissociation rate constant (kd) were further obtained through kinetic analysis, thereby calculating an equilibrium dissociation constant (KD=kd/ka).
A CM5 chip with a catalog number 29149603, an amino coupling reagent kit with a catalog number BR100050, HBS-EP+Buffer (10×), sodium acetate (pH 4.0), and a 10 mM glycine-HCl buffer (pH 2.0) were all purchased from GE Health.
CM5 chip coupling: Channels 2 and 4 of the CM5 chip were activated for 7 min by using a freshly-prepared mixture of 50 mM Hydroxy succinimide (NHS) and 200 mM 1-(3-Dimethylaminopropyl)-3-ethylcarbodiimide (EDC) according to 1:1; and then, hMPV-N46 or hPIV-N51 was diluted and dissolved with sodium acetate with 4.0 pH to a concentration of 30 μM, with a flow rate of 10 μl/min and time of 600 s. An experimental buffer was HBS-EP+buffer (1×). Finally, the chip was blocked with 1 M ethanolamine. The instrument was set to a temperature of 25° C.
Affinity detection: the buffer used in the experiment was HBS-EP+buffer (1×), and a multi-cycle dynamic mode was used. Channels 1 and 3 of the chip served as blank reference channels; polypeptides to be detected sequentially flowed through Channels 2 and 4 at concentrations of 0 μM, 0.04 µM, 0.12 µM, 0.37 μM, 1.11 µM, 3.33 µM, 10 µM, and 30 μM; the flow rate was 30 μl/min, binding was performed for 180 s, and dissociation was performed for 120 s. Finally, the chip was regenerated by injecting 10 mM glycine (pH 2.0). The instrument was set to a temperature of 25° C.

For data set [2], the system named is hPIV3 C243 virus strain. Format: cell-based, hPIV. The settings on record: LLC-MK2 cells, hPIV3 C243, plaque reduction; read-out: EC50 against hPIV3 virus. The method, then: Rhesus monkey kidney cells (LLC-MK2) were sourced from the ATCC, with a catalog number CCL-7.1. The cells were cultured in a DMEM culture solution in which 10% fetal bovine serum, 1% non-essential amino acids, 1% sodium pyruvate, 1% L-glutamine, 100 U/ml penicillin, and 100 μg/ml streptomycin were added.
An HPIV-3 plaque experiment culture medium consisted of a DMEM culture solution added with 2% fetal bovine serum, 1% non-essential amino acids, 1% sodium pyruvate, 1% L-glutamine, 100 U/ml penicillin, and 100 μg/ml streptomycin.
The hPIV Type 3 (hPIV3 C243) was sourced from the ATCC, with a catalog number VR-93.
This study used the plaque reduction experiment to detect the in-vitro activity of the test sample against the hPIV3 C243 virus strain, and Human Anti-HPIV3 Monoclonal Antibody, clone PIA174 was an experimental system control. The test sample and a system experimental antibody were tested at 8 concentrations in duplicated wells.
The LLC-MK2 cells were digested with trypsin and then diluted to a concentration of 400,000 cells per milliliter by using a cell culture solution containing 2% serum. The diluted cells were added to a 96-well cell test board, with 100 μL per well, corresponding to 40,000 cells per well. The cells were cultured overnight in a 37° C. incubator with 5% CO2.
On the next day, the sample diluted at a fold ratio and an equal volume of virus (approximately 200 PFU per well) were well mixed and incubated at 37° C. in 5% CO2 for 1 hour. Then, the culture solution in the 96-well cell test board was discarded, the sample virus mixed solution (100 μL) was added to the 96-well cell culture plate, and incubated at 37° C. in 5% CO2 for 2 hours. After 2 h, the sample virus mixed solution was discarded, 200 μL of an experiment culture medium containing the test sample with a corresponding concentration was added, and the culture solution contained 0.8% CMC. A final concentration of DMSO in the culture solution was 0.5%. A control antibody was directly added to the experiment culture solution containing 0.8% CMC. A cell control (cells, without compound treatment or viral infection) and a viral control (cell infection virus, without compound treatment) were set. The cells were cultured for 1 day in the 37° C. incubator with 5% CO2.
The cells were fixed with 4% paraformaldehyde, and then permeabilization was performed with 0.5% Triton X-100. After the plate was washed with DPBS, a hPIV specific antibody (1:2000 dilution) was added and incubated at 37° C. for 1.5 h. Then, a secondary antibody (1:500 dilution) was added and incubated at 37° C. for 1 hour. The secondary antibody was discarded, a TrueBlue solution was added, dyeing was performed for approximately 10 minutes; and the plate was washed with running water and then air-dried, and the number of spots in each well was counted by using a microplate imaging counter.
Raw data was used for calculating the antiviral activity of the samples, and a calculation formula was shown as follows.
% inhibition rate=100−(sample value-cell control average value)/(virus control average value-cell control average value)×100
Non-linear fitting analysis was performed on the inhibition rate of the sample by using GraphPad Prism (version 10), so as to calculate an EC50 value for the sample. A fitting formula was log (inhibitor) vs. response-Variable slope (four parameters).

Data set [3] in a line: Cytotoxicity test in HEp-2 cells (CCK8 cell viability). The note with it: human; HEp-2 cells, CCK8, 1 day; read-out: CC50. Format: cell-based. The method in brief:
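Compound dilutions (final DMSO 0.5%) were applied for 1 day to HEp-2 cells plated at 30,000 per well the day before. CCK8 signal gave survival relative to cell and medium controls, and a four-parameter log(inhibitor)-response fit yielded CC50.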

Where a SMILES comes first, the peptide text is derived from it. The star is where a group is joined. Succinyl(4-O-cholesteryl) = CC(C)CCC[C@@H](C)[C@H]1CC[C@H]2[C@@H]3CC=C4C[C@@H](OC(=O)CCC(=O)*)CC[C@]4(C)[C@H]3CC[C@]12C; X1 = CC(C)CCCC(C)C1CCC2C3CC=C4CC(OC(=O)CCC(=O)*)CCC4(C)C3CCC12C

T1 sequence (Q6WB98 127-172): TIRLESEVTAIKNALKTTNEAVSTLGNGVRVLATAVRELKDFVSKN

In general, Kd refers to the constant that tells how readily two partners part at equilibrium. High values mean weaker binding, low ones tighter binding. Usually EC50 stands for the concentration at which the effect is half-maximal. As usually defined, the CC50 is the concentration that lowers cell viability or growth by half. Molecule `CC[C@H](C)[C@H](NC(=O)[C@H](CO)NC(=O)[C@H](C)NC(=O)[C@H](CC(=O)O)NC(=O)[C@H](Cc1ccccc1)NC(C)=O)C(=O)N[C@@H](CCC(=O)O)C(=O)N[C@@H](CCC(=O)O)C(=O)N[C@H](C(=O)N[C@@H](CC(N)=O)C(=O)N[C@@H](CCCNC(=N)N)C(=O)N[C@@H](CCCNC(=N)N)C(=O)N[C@H](C(=O)N[C@@H](CCC(=O)O)C(=O)N[C@@H](CCC(=O)O)C(=O)N[C@@H](CO)C(=O)N[C@@H](CC(C)C)C(=O)N[C@@H](CCCNC(=N)N)C(=O)N[C@@H](CCCNC(=N)N)C(=O)N[C@H](C(=O)N[C@@H](CCC(=O)O)C(=O)N[C@@H](CCC(=O)O)C(=O)N[C@@H](CO)C(=O)N[C@@H](CC(=O)O)C(=O)N[C@@H](CCCNC(=N)N)C(=O)N[C@@H](CCCNC(=N)N)C(=O)N[C@@H](CC(C)C)C(=O)N[C@@H](CCC(=O)O)C(=O)N[C@@H](CCC(=O)O)C(=O)N[C@H](C(=O)N[C@@H](CC(N)=O)C(=O)N[C@@H](C)C(=O)N[C@@H](CCC(=O)O)C(=O)N[C@@H](C)C(=O)N[C@@H](C)C(=O)N[C@@H](C)C(=O)N[C@@H](CCCCN)C(=O)N[C@@H](CCCCNC(=O)CCC(=O)O[C@H]1CC[C@@]2(C)C(=CC[C@H]3[C@@H]4CC[C@H]([C@H](C)CCCC(C)C)[C@@]4(C)CC[C@@H]32)C1)C(N)=O)C(C)C)[C@@H](C)CC)[C@@H](C)CC)C(C)C` [Compound 42] (Ac-FDASIEEVNRRIEESLRRIEESDRRLEEVNAEAAAKK(Succinyl(4-O-cholesteryl))-NH2) gave a Kd in data set [1] of 533 nM. Besides, the EC50 in data set [2] is 18.9 nM. Further, in data set [3], the CC50 at 1 day worked out at 3710 nM.

In data set [1], `CC[C@H](C)[C@H](NC(=O)[C@H](CCCCN)NC(=O)[C@H](CCCCN)NC(=O)[C@H](CC(C)C)NC(=O)[C@H](CO)NC(=O)[C@H](CCC(=O)O)NC(=O)[C@H](CCC(=O)O)NC(=O)[C@@H](NC(=O)[C@H](CCCCN)NC(=O)[C@H](CCCCN)NC(=O)[C@H](CC(N)=O)NC(=O)[C@@H](NC(=O)[C@H](CCC(=O)O)NC(=O)[C@H](CCC(=O)O)NC(=O)[C@@H](NC(=O)[C@H](CCCCN)NC(=O)[C@H](CCCCN)NC(=O)[C@H](CC(=O)O)NC(=O)[C@H](Cc1ccccc1)NC(=O)[C@H](CCC(=O)O)NC(=O)[C@H](CC(=O)O)NC(=O)[C@H](Cc1c[nH]c2ccccc12)NC(C)=O)[C@@H](C)CC)C(C)C)[C@@H](C)CC)C(=O)N[C@@H](CCC(=O)O)C(=O)N[C@@H](CCC(=O)O)C(=O)N[C@@H](CO)C(=O)N[C@@H](CC(=O)O)C(=O)N[C@@H](CCCCN)C(=O)N[C@@H](CCCCN)C(=O)N[C@@H](CC(C)C)C(=O)N[C@@H](Cc1c[nH]cn1)C(=O)N[C@@H](CC(N)=O)C(=O)N[C@H](C(=O)N[C@@H](CCC(=O)O)C(=O)N[C@@H](C)C(=O)N[C@@H](C)C(=O)N[C@@H](C)C(=O)N[C@@H](CCCCN)C(=O)N[C@@H](CCCCNC(=O)CCC(=O)O[C@H]1CC[C@@]2(C)C(=CC[C@H]3[C@@H]4CC[C@H]([C@H](C)CCCC(C)C)[C@@]4(C)CC[C@@H]32)C1)C(N)=O)C(C)C` [Compound 44] (Ac-WDEFDKKIEEVNKKIEESLKKIEESDKKLHNVEAAAKK(Succinyl(4-O-cholesteryl))-NH2) registered a Kd of 149 nM. In data set [2], the EC50 stood at 27.9 nM. For the same molecule, the CC50 at 1 day in data set [3] was 26500 nM.

“Ac-SLEQVNEKINQSLAFIRKSDEINQSDEEVNKSDELLEAAAKK-NH2 [Compound 50]”: the EC50 in data set [2] turned out to be 34.8 nM. For the same molecule, the CC50 at 1 day in data set [3] was 32600 nM.

In data set [1], `CC[C@H](C)[C@H](NC(=O)[C@H](CCCCN)NC(=O)[C@H](CCCCN)NC(=O)[C@H](CC(C)C)NC(=O)[C@H](CO)NC(=O)[C@H](CCC(=O)O)NC(=O)[C@H](CCC(=O)O)NC(=O)[C@@H](NC(=O)[C@H](CCCCN)NC(=O)[C@H](CCCCN)NC(=O)[C@H](CC(N)=O)NC(=O)[C@@H](NC(=O)[C@H](CCC(=O)O)NC(=O)[C@H](CCC(=O)O)NC(=O)[C@@H](NC(=O)[C@H](CCCCN)NC(=O)[C@H](CCCCN)NC(=O)[C@H](CC(=O)O)NC(=O)[C@H](Cc1ccccc1)NC(=O)[C@H](CCC(=O)O)NC(=O)[C@H](CC(=O)O)NC(=O)[C@H](Cc1c[nH]c2ccccc12)NC(C)=O)[C@@H](C)CC)C(C)C)[C@@H](C)CC)C(=O)N[C@@H](CCC(=O)O)C(=O)N[C@@H](CCC(=O)O)C(=O)N[C@@H](CO)C(=O)N[C@@H](CC(=O)O)C(=O)N[C@@H](CCCCN)C(=O)N[C@@H](CCCCN)C(=O)N[C@@H](CC(C)C)C(=O)N[C@@H](CCC(=O)O)C(=O)N[C@@H](CCC(=O)O)C(=O)N[C@H](C(=O)N[C@@H](CC(N)=O)C(=O)N[C@@H](CCC(=O)O)C(=O)N[C@@H](C)C(=O)N[C@@H](C)C(=O)N[C@@H](C)C(=O)N[C@@H](CCCCN)C(=O)N[C@@H](CCCCNC(=O)CCC(=O)O[C@H]1CC[C@@]2(C)C(=CC[C@H]3[C@@H]4CC[C@H]([C@H](C)CCCC(C)C)[C@@]4(C)CC[C@@H]32)C1)C(N)=O)C(C)C` [Compound 41] (Ac-WDEFDKKIEEVNKKIEESLKKIEESDKKLEEVNEAAAKK(Succinyl(4-O-cholesteryl))-NH2) registered a Kd of 4730 nM. For the same molecule, the half-maximal effective concentration (EC50) in data set [2] came to 71.1 nM. The CC50 at 1 day in data set [3] came out at 17000 nM.

As for `CC[C@H](C)[C@H](NC(=O)[C@H](CCCCN)NC(=O)[C@H](CCCCN)NC(=O)[C@H](CC(C)C)NC(=O)[C@H](CO)NC(=O)[C@H](CCC(=O)O)NC(=O)[C@H](CCC(=O)O)NC(=O)[C@@H](NC(=O)[C@H](CCCCN)NC(=O)[C@H](CCCCN)NC(=O)[C@H](CC(N)=O)NC(=O)[C@@H](NC(=O)[C@H](CCC(=O)O)NC(=O)[C@H](CCC(=O)O)NC(=O)[C@@H](NC(=O)[C@H](CCCCN)NC(=O)[C@H](CCCCN)NC(=O)[C@H](CC(=O)O)NC(=O)[C@H](Cc1ccccc1)NC(=O)[C@H](CCC(=O)O)NC(=O)[C@H](CC(=O)O)NC(C)=O)[C@@H](C)CC)C(C)C)[C@@H](C)CC)C(=O)N[C@@H](CCC(=O)O)C(=O)N[C@@H](CCC(=O)O)C(=O)N[C@@H](CO)C(=O)N[C@@H](CC(=O)O)C(=O)N[C@@H](CCCCN)C(=O)N[C@@H](CCCCN)C(=O)N[C@@H](CC(C)C)C(=O)N[C@@H](CCC(=O)O)C(=O)N[C@@H](CCC(=O)O)C(=O)N[C@H](C(=O)N[C@@H](CCC(=O)O)C(=O)N[C@@H](C)C(=O)N[C@@H](C)C(=O)N[C@@H](C)C(=O)N[C@@H](CCCCN)C(=O)N[C@@H](CCCCNC(=O)CCC(=O)OC1CCC2(C)C(=CCC3C2CCC2(C)C(C(C)CCCC(C)C)CCC32)C1)C(N)=O)C(C)C` (stereo partly shown) [Compound 21] (Ac-DEFDKKIEEVNKKIEESLKKIEESDKKLEEVEAAAKK(X1)-NH2), the EC50 in data set [2] was determined as 21.3 nM. Further, in data set [3], the CC50 at 1 day was 18300 nM.

The record behind these values is patent publication US20260250325A1, “Antiviral Polypeptide Membrane Fusion Inhibitor, and Preparation Method and Application Thereof” (priority 2025, published 2026).
